The subject of one data set is VERSS. Description: Greenhouse test, post-emergence herbicidal action. Format: in vivo, speadwell. From the text:
(§1) For the post-emergence treatment, the test plants were first grown to a height of 3 to 20 cm, depending on the plant habit, and only then treated. Here, the herbicidal compositions were suspended or emulsified in water as distribution medium and sprayed using finely distributing nozzles.
(§2) The respective components A and B and/or C were formulated as 10% by weight strength emulsion concentrate and introduced to the spray liquor with the amount of solvent system used for applying the active compound. In the examples, the solvent used was water.
(§3) The test period extended over 21 days. During this time, the plants were tended, and their response to the treatments with active compound was evaluated.
(§4) The evaluation for the damage caused by the chemical compositions was carried out using a scale from 0 to 100%, compared to the untreated control plants. Here, 0 means no damage and 100 means complete destruction of the plants.
(§5) In the examples below, the value E which is to be expected if the activity of the individual active compounds is just additive was calculated using the method of S. R. Colby (1967) “Calculating synergistic and antagonistic responses of herbicide combinations”, Weeds 15, p. 22 ff. E=X+Y—(X·Y/100) where • X=effect in percent using active compound A at an application rate a; • Y=effect in percent using active compound B at an application rate b; • E=expected effect (in %) of A+B at application rates a+b.
(§6) The plants used in the greenhouse experiments were of the following species: […]

In the next data set the test system is SETFA. As to the kind of experiment: Greenhouse test, post-emergence herbicidal action. Type of data set: in vivo, giant foxtail. To be noted: 21 days.
Source text: as §1, §2, §3, §4, §5, §6

Another data set has as its system AVEFA. Description: Greenhouse test, post-emergence herbicidal action. Format: in vivo, wild oat.
Source text: as §1, §2, §3, §4, §5, §6

Data set [1] relates to ECHCG. As to the kind of experiment: Greenhouse test, post-emergence herbicidal action. Type of data set: in vivo, barnyardgrass.
Source text: as §1, §2, §3, §4, §5, §6

The test system of the next data set is crop plants. Description: Safener action, pre-emergence, damage to crop plants. Type of data set: in vivo. The conditions noted are these: 21 days.
Source text: (§7) For the pre-emergence treatment, the test plants were sown is pots 1-2 days later, i.e. prior to germination, the pots were sprayed with the finely distributed herbicidal compositions, which had been suspended in water.
as §2, §4
As in the example above, test plants were grown, treated with the mixture according to the invention by the Pre-emergence method and, after a test period of 21 days, evaluated using a scale from 0 to 100% damage. The test plants used were crop plants.
A safener action is present if the damage to the crop plant caused by using a mixture according to the invention which comprises a safener C) is less than the damage caused when active compound A or active compounds A and B are used without safener.

A further data set deals with GALAP. Description: Greenhouse test, post-emergence herbicidal action. Type of data set: in vivo, catchweed bedstraw. The conditions noted are these: 21 days.
Source text: as §1, §2, §3, §4, §5, §6

The test system of another data set is SORHA. Description: Greenhouse test, pre-emergence herbicidal action. Type of data set: in vivo, johnsongrass.
Source text: as §7, §2, §3, §4, §5, §6

For another data set, the system named is SETVI. As to the kind of experiment: Greenhouse test, post-emergence herbicidal action. Format: in vivo, green foxtail.
Source text: as §1, §2, §3, §4, §5, §6

Data set [2] deals with BIDPI. Description: Greenhouse test, pre-emergence herbicidal action. Format: in vivo, hairy beggarticks.
Source text: as §7, §2, §3, §4, §5, §6

The test system of data set [3] is ECHCG. As to the kind of experiment: Greenhouse test, pre-emergence herbicidal action. Type of data set: in vivo, barnyardgrass.
Source text: as §7, §2, §3, §4, §5, §6

Data set [4] relates to BIDPI. As to the kind of experiment: Greenhouse test, post-emergence herbicidal action. Type of data set: in vivo, hairy beggarticks.
Source text: as §1, §2, §3, §4, §5, §6

The subject of another data set is BRAPL. Description: Greenhouse test, post-emergence herbicidal action. Type of data set: in vivo, alexandergrass.
Source text: as §1, §2, §3, §4, §5, §6

Data set [5] concerns ABUTH. As to the kind of experiment: Greenhouse test, pre-emergence herbicidal action. Type of data set: in vivo, velvet leaf.
Source text: as §7, §2, §3, §4, §5, §6

The next data set deals with POLPE. Description: Greenhouse test, post-emergence herbicidal action. Type of data set: in vivo, ladysthumb.
Source text: as §1, §2, §3, §4, §5, §6

The subject of a further data set is POAAN. Description: Greenhouse test, post-emergence herbicidal action. Type of data set: in vivo, annual bluegrass.
Source text: as §1, §2, §3, §4, §5, §6

Another data set relates to MATIN. Description: Greenhouse test, post-emergence herbicidal action. Type of data set: in vivo, false chamomille.
Source text: as §1, §2, §3, §4, §5, §6

In a further data set the test system is CHEAL. Description: Greenhouse test, pre-emergence herbicidal action. Type of data set: in vivo, lambsquarters.
Source text: as §7, §2, §3, §4, §5, §6

For the next data set, the system named is THLAR. Description: Greenhouse test, pre-emergence herbicidal action. Format: in vivo, fanweed.
Source text: as §7, §2, §3, §4, §5, §6

The next data set relates to COMBE. As to the kind of experiment: Greenhouse test, post-emergence herbicidal action. Type of data set: in vivo, tropical spiderwort. To be noted: 21 days.
Source text: as §1, §2, §3, §4, §5, §6

Data set [6] concerns ABUTH. As to the kind of experiment: Greenhouse test, post-emergence herbicidal action. Format: in vivo, velvet leaf. To be noted: 21 days.
Source text: as §1, §2, §3, §4, §5, §6

The mark [7] stands for this setting: application rate 1.95 g/ha (Example 28).
Where [8] appears, read: application rate 1.95 g/ha, 21 days.
Setting [9] is: application rate 3.91 g/ha (Example 28).
The mark [10] stands for this setting: application rate 3.91 g/ha, 21 days.
[11] abbreviates: application rate 0.98 g/ha (Example 24).
Where [12] appears, read: application rate 1.95 g/ha (Example 24).
Setting [13] is: application rate 62.5 g/ha (Example 23).

The structures appear in SMILES notation.

With `CCc1nc2c(Cl)cc(Cl)c(-c3nn(C)c(OC(F)F)c3Br)c2o1` [I.12], the “Herbicidal action against VERSS, Found” value in the data set on VERSS (application rate 0.49 g/ha) stood at 0%; in the data set on VERSS (application rate 0.98 g/ha), 50%. The “Herbicidal action against SETFA, Found” value in the data set on SETFA (application rate 1.95 g/ha) was found to be 50%; in the data set on SETFA (application rate 3.91 g/ha) it was 65%. The “Herbicidal action against AVEFA, Found” value with AVEFA (application rate 1.95 g/ha) worked out at 40%; with AVEFA (application rate 1.95 g/ha (Example 16)), 20%; in the data set with AVEFA (setting [7]), 20%; in the data set on AVEFA (setting [8]) it was 20%; with AVEFA (application rate 3.91 g/ha), 40%; with AVEFA (application rate 3.91 g/ha (Example 16)) it was 30%. Also, the “Herbicidal action against AVEFA, Found” value in the data set with AVEFA (setting [9]) is 20%; with AVEFA (setting [10]) it was 30%. The “Herbicidal action against ECHCG, Found” value with ECHCG [1] (application rate 0.49 g/ha) was determined as 0%; in the data set on ECHCG [1] (application rate 0.98 g/ha), 0%; in the data set with ECHCG [1] (setting [11]) it was 0%; with ECHCG [1] (setting [12]), 0%; with ECHCG [1] (setting [8]) it was 50%; with ECHCG [1] (setting [10]) it was 50%. For the same compound, the “Herbicidal action against ECHCG, Found” value in the data set on ECHCG [3] (application rate 31.25 g/ha) and with ECHCG [3] (setting [13]) was 0% each time. The “Damage to the crop plant corn (ZEAMX), cultivar Magister” value is listed as 38% in the data set on crop plants (application rate 62.5 g/ha) and 35% with crop plants (application rate 125 g/ha). The “Damage to the crop plant corn (ZEAMX), cultivar P3751” value with crop plants (application rate 62.5 g/ha) was 28%; in the data set with crop plants (application rate 125 g/ha) it was 35%. Also, the “Herbicidal action against GALAP, Found” value in the data set on GALAP (application rate 0.49 g/ha) and in the data set with GALAP (application rate 0.98 g/ha) was 15% throughout. Moreover, the “Herbicidal action against SORHA, Found” value with SORHA (application rate 31.25 g/ha) was 30%; in the data set on SORHA (application rate 62.5 g/ha), 40%. The “Herbicidal action against SETVI, Found” value in the data set on SETVI (application rate 0.98 g/ha) was 40%; with SETVI (application rate 1.95 g/ha) it was 50%. Further, the “Herbicidal action against BIDPI, Found” value with BIDPI [2] (application rate 62.5 g/ha) was 30%; in the data set on BIDPI [2] (application rate 125 g/ha), 30%; with BIDPI [4] (application rate 1.95 g/ha) it was 65%; with BIDPI [4] (application rate 3.91 g/ha) it was 65%. The “Herbicidal action against BRAPL, Found” value with BRAPL (setting [7]) came to 50%; in the data set with BRAPL (application rate 3.91 g/ha (Example 18)) it was 60%; in the data set on BRAPL (setting [9]) it was 50%; with BRAPL (application rate 7.81 g/ha (Example 18)), 75%. The “Herbicidal action against ABUTH, Found” value with ABUTH [5] (application rate 62.5 g/ha) and in the data set with ABUTH [5] (application rate 125 g/ha) was 60% throughout. Besides, the “Herbicidal action against POLPE, Found” value in the data set on POLPE (application rate 0.49 g/ha) stood at 15%; in the data set with POLPE (application rate 0.98 g/ha), 15%; in the data set on POLPE (setting [11]), 15%; in the data set with POLPE (setting [12]), 60%; in the data set with POLPE (setting [8]), 60%; in the data set on POLPE (setting [10]) it was 65%.

In the case of `CC(C)N(C(=O)COc1nnc(C(F)(F)F)s1)c1ccc(F)cc1` [flufenacet], the “Herbicidal action against VERSS, Found” value with VERSS (application rate 250 g/ha) is 0%. The “Herbicidal action against POAAN, Found” value in the data set with POAAN (application rate 250 g/ha) is listed as 0%. Moreover, in the data set with MATIN (application rate 250 g/ha), the “Herbicidal action against MATIN, Found” value is listed as 10%.

Turning to `COC[C@H](C)N(C(=O)CCl)c1c(C)csc1C` [dimethenamide-P], the “Herbicidal action against SORHA, Found” value in the data set with SORHA (application rate 62.5 g/ha) worked out at 50%. Further, the “Herbicidal action against ECHCG, Found” value in the data set with ECHCG [3] (application rate 62.5 g/ha (Example 22)) and in the data set with ECHCG [3] (setting [13]) was 85% each time. Moreover, the “Herbicidal action against CHEAL, Found” value in the data set with CHEAL (application rate 62.5 g/ha) amounted to 10%.

`CCC(CC)Nc1c([N+](=O)[O-])cc(C)c(C)c1[N+](=O)[O-]` [pendimethalin]: the “Herbicidal action against THLAR, Found” value in the data set on THLAR (application rate 250 g/ha) worked out at 40%.

`CCc1nc2c(Cl)cc(F)c(-c3nn(C)c(OC(F)F)c3Cl)c2o1` [I.9]: the “Herbicidal action against SETFA, Found” value in the data set on SETFA (application rate 1.95 g/ha) is 45%. For the same compound, the “Herbicidal action against THLAR, Found” value with THLAR (application rate 15.63 g/ha) and in the data set on THLAR (application rate 31.25 g/ha) was 80% each time. Moreover, the “Herbicidal action against AVEFA, Found” value in the data set with AVEFA (application rate 1.95 g/ha (Example 15)) was determined as 10%; in the data set on AVEFA (setting [8]), 10%; in the data set on AVEFA (application rate 3.91 g/ha (Example 15)) it was 20%. The “Herbicidal action against COMBE, Found” value in the data set on COMBE (application rate 0.98 g/ha) and with COMBE (application rate 1.95 g/ha) was 10% in each case. Further, the “Herbicidal action against POAAN, Found” value with POAAN (application rate 1.95 g/ha) and with POAAN (application rate 3.91 g/ha) was 10% each time. The “Herbicidal action against MATIN, Found” value in the data set on MATIN (application rate 1.95 g/ha) and in the data set with MATIN (application rate 3.91 g/ha) was 20% throughout. For the same compound, the “Herbicidal action against ECHCG, Found” value came to 10% in the data set on ECHCG [3] (application rate 7.81 g/ha) and 35% in the data set with ECHCG [3] (application rate 15.63 g/ha). In addition, the “Herbicidal action against BIDPI, Found” value is on record as 0% in the data set on BIDPI [4] (setting [8]) and 40% with BIDPI [4] (setting [10]). For the same compound, the “Herbicidal action against ABUTH, Found” value in the data set on ABUTH [6] (application rate 0.49 g/ha) was determined as 0%; in the data set with ABUTH [6] (application rate 0.98 g/ha) it was 70%. Further, the “Herbicidal action against CHEAL, Found” value in the data set on CHEAL (application rate 7.81 g/ha) and in the data set on CHEAL (application rate 15.63 g/ha) was 75% throughout. The “Herbicidal action against BRAPL, Found” value was determined as 65% in the data set on BRAPL (application rate 3.91 g/ha (Example 17)) and 85% in the data set on BRAPL (application rate 7.81 g/ha (Example 17)). The “Herbicidal action against POLPE, Found” value in the data set with POLPE (application rate 0.49 g/ha, 21 days) amounted to 5%; in the data set on POLPE (application rate 0.98 g/ha, 21 days), 10%; with POLPE (setting [8]), 50%.

The record behind these values is US20050037923A1, “Herbicidal mixture based on 7-pyrazolybenzoxazoles” (BASF Aktiengesellschaft, priority 2001, published 2005).
